Data published in article PMC9732253, “Inhibition of the Phosphatidylinositol-3 Kinase Pathway Using Bimiralisib in Loss-of-Function NOTCH1-Mutant Head and Neck Cancer” (The Oncologist, 2022).
“And” between values parts separate entries of the source, which are not always exact repeats. Equal values may be shown once.

What was measured:
NOTCH1-mutant HNSCC = experiment: Phase II single-arm trial, tumor response by RECIST 1.1 and survival; type: in vivo, human; conditions: for Median OS / Median PFS: all 8 patients; for Median PFS: 95% CI 39-199 days
Source text: Adults with an Eastern Cooperative Oncology Group performance status of ≤2, measurable disease according to Response Evaluation Criteria in Solid Tumors (RECIST) version 1.1,[1] and histologically confirmed recurrent or metastatic (R/M) HNSCC for which no standard curative or life-prolonging therapy was available were eligible. All patients had already received platinum chemotherapy and α-PD1 immunotherapy unless unable to tolerate them. […] Safety was continuously monitored. Demographic and clinical characteristics were summarized using univariate statistics, including mean, median, and standard deviation or frequency and percentage. Objective response rate was summarized by frequency and percentage with a 2-sided 95% […] CI.[5] Duration of response, PFS, and overall survival were analyzed using the Kaplan-Meier method.[6] All statistical analyses were performed using R statistical software (version 3.6.3, R Core Team, 2020). Survival modeling was performed using the “survival” package.[7] […] Time to response was defined as the time from first study drug administration to the first documentation of response (complete or partial). Duration of response was defined as the time from the date of the first confirmed response to the first documentation of disease progression. PFS was defined as the time from first study drug administration to disease progression or death due to any cause. Overall survival was defined as the time from first study drug administration to death due to any cause.

[1] = cited from earlier work
other protein kinases = test system: other protein kinases; set-up: method as in PMID 28829592; conditions: biochemical assays; cited from earlier work
[2] = test system: pathway targets in tumor tissue; set-up: method as in PMID 29660598; conditions: therapeutic doses; cited from earlier work
[3] = number (%) of 6 patients evaluated for efficacy, RECIST 1.1

Compound: Nc1cc(C(F)(F)F)c(-c2nc(N3CCOCC3)nc(N3CCOCC3)n2)cn1 [Bimiralisib, 5-(4,6-dimorpholino-1,3,5-triazin-2-yl)-4-(trifluoromethyl)pyridin-2-amine]
- Response duration (NOTCH1-mutant HNSCC; 6 evaluable patients): 111 days
- Objective response rate (NOTCH1-mutant HNSCC; 6 evaluable patients (1/6), RECIST 1.1, 140 mg orally on 2 consecutive days weekly, 95% CI 1-58%): 17%
- Median TTP (NOTCH1-mutant HNSCC; CI: 83-inf): 167 days (CI: 83-inf)
- Median OS (NOTCH1-mutant HNSCC): 7 months
- Median PFS (NOTCH1-mutant HNSCC): 147 days (CI: 39-199)
- Median PFS (NOTCH1-mutant HNSCC; listed as bimiralisib): 147 days
- Median OS (NOTCH1-mutant HNSCC; 95% CI 39 days-infinity): 215 days (CI: 39-inf)
- Median OS (NOTCH1-mutant HNSCC; 95% CI 39 days-infinity, listed as bimiralisib): 215 days
- Response assessment, CR (NOTCH1-mutant HNSCC; [3]): 0 (0%)
- Response assessment, PR (NOTCH1-mutant HNSCC; [3]): 1 (17%)
- Reduction in the target lesion size (NOTCH1-mutant HNSCC; one patient with confirmed partial response): 49%
- Day of progressive disease (NOTCH1-mutant HNSCC; one patient with progressive disease): 83
- Reduction in the target lesion size compared with baseline, final computed tomography scan (NOTCH1-mutant HNSCC; patient with confirmed partial response, in study until day 157): 45%
- Day of disease progression (NOTCH1-mutant HNSCC; three patients with confirmed stable disease, one value each): 91 days and 138 days and 167 days
- Time of maximum plasma concentration, latest ([1]; after oral administration): ≤ 24 h
- Highest Cmax ([1]; dose of 150 mg, ref 11 (Wicki et al)): 998 ng/mL
- Terminal half-life ([1]; in vivo): 40 h
- Time of maximum plasma concentration after a dose ([1]; most humans, oral): 1 to 2 h
- Inhibition of other protein kinases (other protein kinases): does not significantly inhibit
- Change of pathway targets in tumor tissue [2]: marked decreases
